Key:
[1] = molecular target: T1, CXCR4 (Homo sapiens, UniProt P61073); assay: Saturation binding assay in PC3-CXCR4 cells
T1 construct: expressed in transfected cells; host or cells: PC3 (human prostate cancer) cells stably transduced with CXCR4
Experimental: To determine the dissociation constants, saturation binding assays were performed in the PC3-CXCR4 cells. The cells were plated as described above, and approximately 5 nM of the radioligand was added to each well. Then the corresponding non-radioactive ligand was added to give a final concentration in the range 0.001–10,000 nM. A total of eight concentrations were tested, and each concentration was tested in triplicate. The samples were washed and counted as described above. Non-specific binding was subtracted, and Kd values were determined by performing a nonlinear one site binding curve fit with equation y = (Bmax · x)/(Kd + x). Values are expressed as Kd ± standard deviation (Supplemental Data, Figure S8).

[2] = molecular target: T1, CXCR4; assay: Competition binding assay vs [^68Ga]Pentixafor in PC3-CXCR4 cells
Experimental: (§1) PC3-CXCR4 cells were plated in 12-well plates at a density of 500,000 cells per well and incubated for 48 h at 37 °C/5% CO2. Prior to the binding assay the cells were incubated in fresh media and 370–555 kBq of [^68Ga]Pentixafor or [^18F]RPS-544 was added to each well. The corresponding concentration of [^68Ga]Pentixafor in each well was 100 nM, and the concentration of [^18F]RPS-544 was approximately 5 pM. Then non-radioactive ligands were added to give a final ligand concentration in the range 0.001–10,000 nM. A total of eight concentrations were studied, and each concentration was tested in triplicate. The cells were incubated for 60 min at 37 °C/5% CO2. The media was removed under suction, the cells were washed with cold PBS 1X and detached and transferred to tubes for counting in 1 M NaOH. The cells were counted in a Wizard^2 Gamma Counter (PerkinElmer, Waltham, MA, USA). Non-specific binding was subtracted, and the IC50 values were determined by assuming a simple competitive binding interaction and fitting the data to a sigmoidal Hill plot in Origin 9.0 (OriginLab, Northampton, MA, USA). Potencies are expressed as IC50 ± standard deviation (Supplemental Data, Figure S7).

[3] = molecular target: T1, CXCR4; assay: Competition binding assay vs [^18F]RPS-544 in PC3-CXCR4 cells; settings: approx. 5 pM [^18F]RPS-544; p = 0.85
Experimental: as §1

[4] = test system: PC3-CXCR4 cells; assay: Internalization in PC3-CXCR4 cells; format: cell-based, human; settings: after 135 min incubation
Experimental: Internalization studies were performed for [^18F]RPS-534 and [^18F]RPS-547 in a time dependent manner. PC3-CXCR4 cells were plated as described above in 12-well plates and incubated for 48 h prior to the experiment. The media was exchanged and [^18F]RPS-534 or [^18F]RPS-547 (10^−5 μM; approximately 400 kBq) was added to each well. All experiments were performed in triplicate. […] Then the media was removed under suction at the corresponding temperature, and the cells washed with 1 mL PBS. Cell surface-bound activity was collected by two successive 5 min incubations of 0.5 mL of a 50 mM glycine buffer (pH = 2.8) performed at 4 °C or 37 °C. The cells were then washed with 1 mL ice-cold PBS and detached with 1 mL ice cold 1 M NaOH. Detached cells were collected and counted along with the washes. An aliquot of the administered radioactivity (10% IA) was also counted and used for quantification. The activity found in the NaOH fractions of the 4 °C plates was subtracted from the activities of the fractions at 37 °C to correct for non-specific binding. Internalized activity was expressed as the fraction of activity in the NaOH fraction relative to the total activity added.

[5] = test system: PC3-CXCR4 xenograft tumors; assay: Biodistribution in mice bearing bilateral PC3-WT/PC3-CXCR4 xenograft tumors; format: in vivo, BALB/c mice
Experimental: (§2) All animal studies were approved by the Institutional Animal Care and Use Committee of Weill Cornell Medicine (Protocol Number: 2015-0066) and were undertaken in accordance with the guidelines set forth by the USPHS Policy on Humane Care and Use of Laboratory Animals. Animals were housed under standard conditions in approved facilities with 12 h light/dark cycles. Food and water was provided ad libitum throughout the course of the studies. Hairless 6-to-8-week old male BALB/c inbred athymic nude mice (Jackson Laboratory, Bar Harbor, ME, USA) were inoculated bilaterally with 0.2 mL of a 1:1 mixture of 10^7 PC3-CXCR4 cells in PBS and Matrigel (Corning, Tewksbury, MA, USA) subcutaneously in the left shoulder and 0.2 mL of a 1:1 mixture of 10^7 PC3-WT cells in PBS and Matrigel subcutaneously in the right shoulder. Imaging and biodistribution studies were performed three weeks post-implantation, when tumors were approximately 100–300 mm^3.
(§3) For the biodistribution studies, tumor-bearing animals (n = 5/compound/time point) were injected intravenously with 50–100 μL of a 9% v/v EtOH/saline solution containing approximately 1.1 MBq of the radioligand. […] The mice were euthanized at 1 or 2 h p.i. and tissues including blood, heart, lungs, liver, small intestine, large intestine, stomach (with contents), spleen, pancreas, kidneys, muscle, bone, PC3-WT tumors, PC3-CXCR4 tumors, and tail were collected. All organs were weighed and placed in test tubes for counting in a Wizard^2 Gamma Counter (PerkinElmer, Waltham, MA, USA). For comparison, 1% injected activity standards were prepared and counted along with the tissue samples. The tails were counted to correct for any dose extravasation. Activity in each tissue was corrected for decay and for injected activity and expressed as percent injected dose per gram of tissue (%ID/g) ± standard error.

[6] = as above; format: in vivo, BALB/c mice
Experimental: as §2, §3

[7] = test system: PC3-CXCR4 cells; assay: Cell-associated activity in PC3-CXCR4 cells; format: cell-based, human; settings: 1 h
Experimental: Maximum cell-associated activity was calculated by subtracting the cell uptake of the radioactive ligand at the highest non-radioactive ligand concentration of 10 µM (which we considered to be non-specific uptake/binding) from the cell uptake at the lowest non-radioactive ligand concentration of 10^−5 µM.

[8] = 1 h p.i., blocked by co-injection of 5 mg/kg AMD-3100

T1 sequence (P61073 whole entry): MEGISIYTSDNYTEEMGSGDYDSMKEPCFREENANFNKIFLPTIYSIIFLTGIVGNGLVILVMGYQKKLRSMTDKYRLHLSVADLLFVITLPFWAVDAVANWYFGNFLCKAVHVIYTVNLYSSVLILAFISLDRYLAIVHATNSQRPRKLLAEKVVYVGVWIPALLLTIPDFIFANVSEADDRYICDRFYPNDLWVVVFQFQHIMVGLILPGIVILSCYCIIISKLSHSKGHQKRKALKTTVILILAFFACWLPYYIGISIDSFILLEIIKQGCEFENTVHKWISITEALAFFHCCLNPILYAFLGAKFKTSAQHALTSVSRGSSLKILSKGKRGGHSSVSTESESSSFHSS

Compound: FCCn1cc(-c2cc(CN3CCCNCCNCCCNCC3)ccc2CNCc2ccccn2)nn1 [RPS-534]
- Kd ([1]; saturation binding, PC3-CXCR4 cells): 176 ± 30 nM
- Hill Slope, Saturation Binding Experiment ([1]; value ± SD): 1.05 ± 0.15
- decrease in affinity relative to RPS-544 [2]: 30 fold
- IC50 ([2]; vs 100 nM [^68Ga]Pentixafor, PC3-CXCR4 cells, 60 min 37 °C): 218 ± 38 nM
- Hill Slope, Competitive Binding Experiment ([2]; vs [^68Ga]Pentixafor, value ± SD): 1.15 ± 0.34
- IC50 vs [^18F]RPS-544 compared with IC50 vs [^68Ga]Pentixafor [3]: not significantly different
- internalized activity [4]: approximately 2 %IA
- internalized share of total cell-associated activity [4]: approximately 7%
- Bone tissue activity ([5]; 1 h p.i.): 1.44±0.04 %ID/g
- Heart tissue activity ([5]; 1 h p.i.): 0.25±0.01 %ID/g
- Kidneys tissue activity ([5]; 1 h p.i.): 7.43±0.96 %ID/g
- Large Intestine tissue activity ([5]; 1 h p.i.): 0.29±0.06 %ID/g
- Liver tissue activity ([5]; 1 h p.i.): 19.14 ± 0.42 %ID/g
- Lungs tissue activity ([5]; 1 h p.i.): 1.01±0.09 %ID/g
- Muscle tissue activity ([5]; 1 h p.i.): 0.19±0.03 %ID/g
- PC3-CXCR4 Tumor Uptake ([5]; 1 h p.i.): 7.20 ± 0.30 %ID/g
- PC3-CXCR4 Tumor-to-Tissue Ratio Blood ([5]; 1 h p.i.): 27.5 ± 0.4
- PC3-CXCR4 Tumor-to-Tissue Ratio Bone ([5]; 1 h p.i.): 5.7 ± 0.4
- PC3-CXCR4 Tumor-to-Tissue Ratio Kidneys ([5]; 1 h p.i.): 1.1 ± 0.4
- PC3-CXCR4 Tumor-to-Tissue Ratio Liver ([5]; 1 h p.i.): 0.4 ± 0.2
- PC3-CXCR4 Tumor-to-Tissue Ratio Lungs ([5]; 1 h p.i.): 8.0 ± 0.4
- PC3-CXCR4 Tumor-to-Tissue Ratio Muscle ([5]; 1 h p.i.): 42.4 ± 0.1
- PC3-CXCR4 Tumor-to-Tissue Ratio PC3-WT ([5]; 1 h p.i.): 2.5 ± 0.4
- PC3-WT tumor activity ([5]; 1 h p.i.): 2.85±0.22 %ID/g
- Pancreas tissue activity ([5]; 1 h p.i.): 0.28±0.02 %ID/g
- Small Intestine tissue activity ([5]; 1 h p.i.): 3.67±0.44 %ID/g
- Spleen tissue activity ([5]; 1 h p.i.): 2.49±0.04 %ID/g
- Stomach tissue activity ([5]; 1 h p.i.): 0.16±0.03 %ID/g
- Bone tissue activity [5, 8]: 0.44±0.15 %ID/g
- Heart tissue activity [5, 8]: 0.13±0.04 %ID/g
- Kidneys tissue activity [5, 8]: 5.10±0.33 %ID/g
- Large Intestine tissue activity [5, 8]: 0.40±0.58 %ID/g
- Liver tissue activity [5, 8]: 12.01 ± 4.67 %ID/g
- Lungs tissue activity [5, 8]: 0.48±0.08 %ID/g
- Muscle tissue activity [5, 8]: 0.17±0.16 %ID/g
- PC3-CXCR4 tumor activity [5, 8]: 2.01±0.93 %ID/g
- PC3-WT tumor activity [5, 8]: 1.21±0.47 %ID/g
- Pancreas tissue activity [5, 8]: 0.32±0.01 %ID/g
- Small Intestine tissue activity [5, 8]: 5.35±1.74 %ID/g
- Spleen tissue activity [5, 8]: 0.12±0.03 %ID/g
- Stomach tissue activity [5, 8]: 0.14±0.11 %ID/g
- Bone tissue activity ([5]; 2 h p.i.): 1.26±0.06 %ID/g
- Heart tissue activity ([5]; 2 h p.i.): 0.14±0.02 %ID/g
- Kidneys tissue activity ([5]; 2 h p.i.): 5.05±0.80 %ID/g
- Large Intestine tissue activity ([5]; 2 h p.i.): 4.60±0.57 %ID/g
- Liver tissue activity ([5]; 2 h p.i.): 18.60±1.74 %ID/g
- Lungs tissue activity ([5]; 2 h p.i.): 0.59±0.03 %ID/g
- Muscle tissue activity ([5]; 2 h p.i.): 0.11±0.03 %ID/g
- PC3-CXCR4 Tumor-to-Tissue Ratio Blood ([5]; 2 h p.i.): 51.1 ± 0.2
- PC3-CXCR4 Tumor-to-Tissue Ratio Bone ([5]; 2 h p.i.): 3.5 ± 0.2
- PC3-CXCR4 Tumor-to-Tissue Ratio Kidneys ([5]; 2 h p.i.): 0.9 ± 0.2
- PC3-CXCR4 Tumor-to-Tissue Ratio Liver ([5]; 2 h p.i.): 0.2 ± 0.1
- PC3-CXCR4 Tumor-to-Tissue Ratio Lungs ([5]; 2 h p.i.): 7.1 ± 0.2
- PC3-CXCR4 Tumor-to-Tissue Ratio Muscle ([5]; 2 h p.i.): 38.8 ± 0.2
- PC3-CXCR4 Tumor-to-Tissue Ratio PC3-WT ([5]; 2 h p.i.): 2.5 ± 0.2
- PC3-CXCR4 tumor activity ([5]; 2 h p.i.): 4.31±0.47 %ID/g
- PC3-WT tumor activity ([5]; 2 h p.i.): 1.66±0.08 %ID/g
- Pancreas tissue activity ([5]; 2 h p.i.): 0.18±0.06 %ID/g
- Small Intestine tissue activity ([5]; 2 h p.i.): 1.53±0.25 %ID/g
- Spleen tissue activity ([5]; 2 h p.i.): 1.90±0.23 %ID/g
- Stomach tissue activity ([5]; 2 h p.i.): 0.12±0.05 %ID/g
- reduction of tumor activity by blocking ([5]; blocking dose 5 mg/kg AMD-3100): approximately 70%
- PC3-CXCR4 tumor uptake relative to [^18F]RPS-544 ([5]; mouse, in vivo): 2 fold
- tumor-to-heart ratio ([5]; time not restated, follows the 1 h p.i. tumor-to-blood ratio): 28.8 ± 0.3
- Blood tissue activity ([6]; 1 h p.i.): 0.30±0.08 %ID/g
- Blood tissue activity [6, 8]: 0.26±0.15 %ID/g
- Blood tissue activity ([6]; 2 h p.i.): 0.08±0.02 %ID/g
- Cell-Associated Activity [7]: 18.5 ± 3.7 %IA

From publication PMC6514812, “[^18F]Fluoroethyltriazolyl Monocyclam Derivatives as Imaging Probes for the Chemokine Receptor CXCR4” (Molecules, 2019)
